Measured values taken from the NIST ThermoML archive (doi:10.1021/je800110r).
Several values for one entry are separate records, joined by “and”; a condition that tells them apart may be missing. Equal entries are not always repeated.

Settings: Liquid, Vibrating tube method

CCCCCCCCCC [decane]
Settings | mass density
313.14 K, 33167 kPa | 739.6 kg/m3
313.14 K, 33192 kPa | 739.6 kg/m3
313.14 K, 33228 kPa | 739.6 kg/m3
313.14 K, 33249 kPa | 739.6 kg/m3
313.14 K, 33282 kPa | 739.6 kg/m3
313.14 K, 33310 kPa | 739.6 kg/m3
313.14 K, 33326 kPa | 739.8 kg/m3
313.14 K, 33356 kPa | 739.6 kg/m3
313.14 K, 33377 kPa | 739.6 kg/m3
313.14 K, 33399 kPa | 739.8 kg/m3
313.14 K, 33423 kPa | 739.6 kg/m3
313.14 K, 33447 kPa | 739.8 kg/m3
313.14 K, 33472 kPa | 739.7 kg/m3
313.14 K, 33490 kPa | 739.8 kg/m3
313.14 K, 33518 kPa | 739.7 kg/m3
313.14 K, 33536 kPa | 739.8 kg/m3
313.14 K, 33561 kPa | 739.7 kg/m3
313.14 K, 33582 kPa | 739.8 kg/m3
313.14 K, 33604 kPa | 739.9 kg/m3
313.14 K, 33629 kPa | 739.9 kg/m3
313.14 K, 33657 kPa | 740 kg/m3
313.14 K, 33682 kPa | 739.9 kg/m3
313.14 K, 33707 kPa | 739.8 kg/m3
313.14 K, 33726 kPa | 739.8 kg/m3
313.14 K, 33748 kPa | 739.9 kg/m3
313.14 K, 33766 kPa | 739.6 kg/m3
313.14 K, 33782 kPa | 739.9 kg/m3
313.14 K, 33804 kPa | 740 kg/m3
313.14 K, 33832 kPa | 740 kg/m3
313.14 K, 33858 kPa | 740 kg/m3
313.14 K, 33880 kPa | 740 kg/m3
313.14 K, 33906 kPa | 740.1 kg/m3
313.14 K, 33924 kPa | 740.1 kg/m3
313.14 K, 33950 kPa | 740 kg/m3
313.14 K, 33978 kPa | 740.2 kg/m3
313.14 K, 33997 kPa | 740.1 kg/m3
313.14 K, 34023 kPa | 740.1 kg/m3
313.14 K, 34043 kPa | 740.1 kg/m3
313.14 K, 34066 kPa | 740.1 kg/m3
313.14 K, 34082 kPa | 740.2 kg/m3
313.14 K, 34105 kPa | 740.2 kg/m3
313.14 K, 34131 kPa | 740.1 kg/m3
313.14 K, 34158 kPa | 740.3 kg/m3
313.14 K, 34181 kPa | 740.1 kg/m3
313.14 K, 34211 kPa | 740.2 kg/m3
313.14 K, 34231 kPa | 740.2 kg/m3
313.14 K, 34264 kPa | 740.2 kg/m3
313.14 K, 34281 kPa | 740.2 kg/m3
313.14 K, 34305 kPa | 740.2 kg/m3
313.14 K, 34333 kPa | 740.3 kg/m3
313.14 K, 34358 kPa | 740.4 kg/m3
313.14 K, 34391 kPa | 740.4 kg/m3
313.14 K, 34414 kPa | 740.4 kg/m3
313.14 K, 34437 kPa | 740.4 kg/m3
313.14 K, 34466 kPa | 740.4 kg/m3
313.14 K, 34503 kPa | 740.5 kg/m3
313.14 K, 34520 kPa | 740.4 kg/m3
313.14 K, 34543 kPa | 740.4 kg/m3
313.14 K, 34560 kPa | 740.5 kg/m3
313.14 K, 34566 kPa | 740.4 kg/m3
313.14 K, 34568 kPa | 740.5 kg/m3
313.14 K, 34571 kPa | 740.4 kg/m3 and 740.5 kg/m3
313.15 K, 1010 kPa | 715.4 kg/m3
313.15 K, 1032 kPa | 715.4 kg/m3
313.15 K, 1055 kPa | 715.5 kg/m3
313.15 K, 1082 kPa | 715.5 kg/m3
313.15 K, 1102 kPa | 715.4 kg/m3
313.15 K, 1122 kPa | 715.5 kg/m3
313.15 K, 1147 kPa | 715.6 kg/m3
313.15 K, 1182 kPa | 715.5 kg/m3
313.15 K, 1217 kPa | 715.7 kg/m3
313.15 K, 1254 kPa | 715.6 kg/m3
313.15 K, 3801 kPa | 717.9 kg/m3
313.15 K, 6798 kPa | 720.3 kg/m3
313.15 K, 6849 kPa | 720.5 kg/m3
313.15 K, 6918 kPa | 720.6 kg/m3
313.15 K, 6929 kPa | 720.5 kg/m3
313.15 K, 7976 kPa | 721.4 kg/m3
313.15 K, 7995 kPa | 721.4 kg/m3
313.15 K, 8013 kPa | 721.4 kg/m3
313.15 K, 8034 kPa | 721.4 kg/m3
313.15 K, 8045 kPa | 721.4 kg/m3
313.15 K, 8059 kPa | 721.4 kg/m3
313.15 K, 8073 kPa | 721.5 kg/m3
313.15 K, 8087 kPa | 721.4 kg/m3
313.15 K, 8102 kPa | 721.4 kg/m3
313.15 K, 8113 kPa | 721.4 kg/m3
313.15 K, 8129 kPa | 721.5 kg/m3
313.15 K, 8649 kPa | 721.9 kg/m3
313.15 K, 8666 kPa | 721.9 kg/m3
313.15 K, 8707 kPa | 721.7 kg/m3
313.15 K, 15697 kPa | 727.3 kg/m3
313.15 K, 15727 kPa | 727.5 kg/m3
313.15 K, 15757 kPa | 727.3 kg/m3
313.15 K, 15781 kPa | 727.5 kg/m3
313.15 K, 15816 kPa | 727.6 kg/m3
313.15 K, 15846 kPa | 727.6 kg/m3
313.15 K, 15873 kPa | 727.6 kg/m3
313.15 K, 17591 kPa | 728.8 kg/m3
313.15 K, 17641 kPa | 728.9 kg/m3
313.15 K, 17664 kPa | 728.8 kg/m3
313.15 K, 17686 kPa | 728.8 kg/m3
313.15 K, 17711 kPa | 728.9 kg/m3
313.15 K, 17734 kPa | 728.9 kg/m3
313.15 K, 20359 kPa | 730.9 kg/m3
313.15 K, 20406 kPa | 730.9 kg/m3
313.15 K, 20562 kPa | 730.8 kg/m3
313.15 K, 20961 kPa | 731.3 kg/m3
313.15 K, 20986 kPa | 731.2 kg/m3
313.15 K, 21097 kPa | 731.3 kg/m3
313.15 K, 21119 kPa | 731.3 kg/m3
313.15 K, 21249 kPa | 731.5 kg/m3
313.15 K, 21278 kPa | 731.5 kg/m3
313.15 K, 21337 kPa | 731.5 kg/m3
313.15 K, 21367 kPa | 731.5 kg/m3
313.15 K, 21711 kPa | 731.8 kg/m3
313.15 K, 21800 kPa | 731.8 kg/m3
313.15 K, 22455 kPa | 732.2 kg/m3
313.15 K, 22492 kPa | 732.4 kg/m3
313.15 K, 22548 kPa | 732.4 kg/m3
313.15 K, 22615 kPa | 732.4 kg/m3
313.15 K, 22970 kPa | 732.6 kg/m3
313.15 K, 22997 kPa | 732.7 kg/m3
313.15 K, 23029 kPa | 732.6 kg/m3
313.15 K, 23052 kPa | 732.6 kg/m3
313.15 K, 23072 kPa | 732.7 kg/m3
313.15 K, 23096 kPa | 732.7 kg/m3
313.15 K, 23131 kPa | 732.8 kg/m3
313.15 K, 23163 kPa | 732.8 kg/m3
313.15 K, 23183 kPa | 732.9 kg/m3
313.15 K, 23218 kPa | 732.9 kg/m3
313.15 K, 23249 kPa | 732.9 kg/m3
313.15 K, 23281 kPa | 733 kg/m3
313.15 K, 23309 kPa | 732.8 kg/m3
313.15 K, 23338 kPa | 733 kg/m3
313.15 K, 23370 kPa | 733 kg/m3
313.15 K, 25526 kPa | 734.6 kg/m3
